Earlier results as cited in patent publication US10471178B2, “Implantable medical devices with increased immune tolerance, and methods for making and implanting” (AMPIO PHARMACEUTICALS, INC., priority 2011, dated 2019).

System: memory but not naive human T lymphocytes
Settings: memory vs naive human T lymphocytes

C[C@@H]1NC(=O)[C@H](CC(=O)O)NC1=O [DA-DKP, Aspartate, Alanine-Diketopiperazine]
immunomodulatory effect on human T lymphocytes: immunomodulatory for memory but not naive human T lymphocytes
